These results are taken from patent US11149047B2, “Aryl imidazoles for treatment of cancer” (Aptose Biosciences Inc., priority 2017, dated 2021).

The test system of one assay is Raji/COMPOUND IR cells. In words: Cytotoxicity study, MTS cell proliferation assay, 5 days. The format is cell-based, human. As to the method: (§1) The human Burkitt lymphoma cell line Raji was obtained from the American Type Tissue Culture Collection and cultured in RPMI 1640 medium (ATCC) supplemented with 10% fetal bovine serum (ATCC,) at 37° C., 5% CO2. The COMPOUND I-resistant Raji (Raji/COMPOUND IR) cell line was generated by exposure to progressively higher concentrations of COMPOUND I over a period of 6 months. CAOV3 cells were obtained from ATCC and cultured in complete DMEM supplemented with 10% fetal bovine serum. MCF7 vector controlled and BRCA1 shRNA subclones were obtained from Dr. Simon Powell (Memorial Sloan-Kettering Cancer Center) and cultured in EMBM with 10% fetal bovine serum. MCF10A and hTERT-IMEC clones were obtained from Dr. Ben Ho Park (Johns Hopkins University). HCT116 BRCA2^+/+ cells and BRCA2^−/− cells were obtained from Dr. Samuel Aparicio (British Columbia Cancer Research Centre). PEO1 and PEO4 cells were obtained from Dr. Sharon Cantor (University of Massachusetts) and these cell lines were cultured under the same conditions as previously published. Sakai et al., Functional restoration of BRCA2 protein by secondary BRCA2 mutations in BRCA2-mutated ovarian carcinoma, Cancer Res. 2009; 69 (16):6381-6; Konishi et al., Mutation of a single allele of the cancer susceptibility gene BRCA1 leads to genomic instability in human breast epithelial cells, Proc. Natl. Acad. Sci. 2011; 108 (43):17773-8; Xu et al., CX-5461 is a DNA G-quadruplex stabilizer with selective lethality in BRCA1/2 deficient tumours, Nature Communications 2017; 8:14432, all of which are hereby incorporated by reference.
(§2) Cells were plated and treated with the indicated drugs in 96-well plates for 5 days. Cell viability was measured using CellTiter 96 AQueous one solution (MTS) cell proliferation assay purchased from Promega, and IC50 values were calculated using GraphPad Prism 6 Software.
Background: Tetrazolium dyes change colour on reduction, which living cells bring about.

In assay [1] the test system is G4 sequences (telomere, MYC, KIT, rRNA oligos). In words: Modified FRET assay, melting of G-quadruplex oligos. Conditions: FIG. 13C; COMPOUND I data at 6-hour incubation. The format is binding, human. As for the experimental part:
FRET assay and data analysis was performed as described previously and modified by using dual labeled (5′ FAM-3′ BHQ1) single-stranded oligos. Melting temperature of each oligo was assessed in the presence of vehicle DMSO or escalating concentrations of COMPOUND I, Fe(COMPOUND I)3, CX-5461, or TMPyP4 using a Roche LightCycler 96 [at 37° C. for 300 seconds followed by temperature increased in […] intervals up to 91° C. (25 steps) with 300-second total incubation time at each temperature]. Drug and oligo reaction mixes were analyzed immediately or incubated for 6 hours at room temperature and then analyzed. […] COMPOUND I data are presented for 6-hour time point.
The ability of COMPOUND I (parental monomeric form of the drug) and Fe(COMPOUND I)3 to bind and stabilize G4 sequences using a modified FRET assay was evaluated (FIGS. 21 and 22). TMPyP4, a well-known G4 ligand, and CX-5461, a clinical stage molecule recently reported to have G4-binding properties, were utilized as controls to assess the specificity of COMPOUND I and Fe(COMPOUND I)3 for G4-stabilizing activity.

In assay [2] the test system is MCF10A BRCA1-het #1 and #2 clones vs control. Kind of assay: Sensitivity of BRCA1-proficient and -deficient isogenic clones. Format: cell-based, human. Particulars: FIG. 3A. As to the method: as §2
(§3) The finding that COMPOUND I produced DNA damage led to the investigation of whether cells deficient in homologous recombination were hypersensitive to this drug. The hypothesis that there would be synthetic lethality between COMPOUND I and BRCA1 deficiency using isogenic pairs of BRCA1-proficient and -deficient human cell lines was tested. […] The conclusion that BRCA1-deficient cells are hypersensitive to COMPOUND I was further supported by the results obtained in MCF7 E7 cells in which BRCA1 expression is stably knocked down by the expression of an shRNAi. […] Whether BRCA2-deficient cells are more sensitive to COMPOUND I was tested using the BRCA2-proficient and BRCA2-deficient ovarian cancer cell lines, PEO4 and PEO1, respectively. PEO1 is BRCA2-deficient and sensitive to cisplatin and a poly(ADP-ribose) polymerase inhibitor AG14361. PEO4 was derived from ascites at the time of relapse with cisplatin resistance and contains a secondary mutation that restores BRCA2 function. […] Thus, loss of either BRCA1 or BRCA2 function renders malignant cells hypersensitive to COMPOUND I.

Assay [3] concerns hTERT-IMEC BRCA1 knock-in clone. Described as above. Format: cell-based, human. Particulars: FIG. 3B. As for the experimental part: as §2, §3
Assay [4] concerns PEO4 and PEO1 ovarian cancer cell lines. In words: Sensitivity of BRCA2-proficient and -deficient cells. Format: cell-based. Conditions: FIG. 3D. As for the experimental part: as §2, §3
The subject of another assay is Raji cells. In words: Cytotoxicity study, MTS cell proliferation assay, 5 days. Particulars: concentrations up to 300 nM, FIG. 5C. The format is cell-based, human. As to the method: as §1, §2

As to `COc1cc([C@@H]2c3cc4c(cc3[C@@H](O[C@@H]3O[C@@H]5CO[C@@H](C)O[C@H]5[C@H](O)[C@H]3O)[C@H]3COC(=O)[C@H]23)OCO4)cc(OC)c1O` [etoposide, reference compound], the “sensitivity of Raji/COMPOUND IR cells relative to Raji” value with Raji/COMPOUND IR cells is listed as “hypersensitive”.
On to `C[n+]1ccc(-c2c3nc(c(-c4cc[n+](C)cc4)c4ccc([nH]4)c(-c4cc[n+](C)cc4)c4ccc([nH]4)c(-c4cc[n+](C)cc4)c4nc2C=C4)C=C3)cc1` [TMPyP4], for which, in assay [1], the “stabilization of G4 sequences (ΔT1/2)” value was “stabilized all G4 motifs except the G4 of the KIT gene promoter”.
Turning to `N.N.O=C([O-])C1(C(=O)[O-])CCC1.[Pt+2]` [carboplatin, reference compound], the “sensitivity of Raji/COMPOUND IR cells relative to Raji” value in the assay on Raji/COMPOUND IR cells is “significantly cross-resistant”.
`O=C(c1cc(Cc2n[nH]c(=O)c3ccccc23)ccc1F)N1CCN(C(=O)C2CC2)CC1` [olaparib, reference compound]: the “sensitivity of BRCA1-het knockin clones vs control” value in assay [2] is listed as “more sensitive to olaparib”. For the same compound, the “sensitivity of BRCA1 2-bp knock-in clone” value in assay [3] is “hypersensitive to both olaparib and COMPOUND I”. The “effect of restoration of BRCA2 function (PEO4 vs PEO1)” value in assay [4] is recorded as “increased resistance”.
`CC[C@@]1(O)C(=O)OCc2c1cc1n(c2=O)Cc2cc3c(CN(C)C)c(O)ccc3nc2-1` [topotecan, reference compound]: the “cross-resistance of Raji/COMPOUND IR cells” value in the assay with Raji/COMPOUND IR cells (vs Raji) is 3 fold. The “effect of Ko143 on topotecan resistance” value with Raji/COMPOUND IR cells (with Ko143, FIG. 5E) is recorded as “reversed this resistance completely”.
For `Cc1cnc(CNC(=O)c2c(=O)c3ccc(N4CCCN(C)CC4)nc3n3c2sc2ccccc23)cn1` [CX-5461], the “stabilization of G4 sequences (ΔT1/2)” value in assay [1] is reported as “potent stabilizer of all G4 sequences tested”.
Take `COc1ccc2c3c([nH]c2c1)[C@H](CC(C)C)N1C(=O)[C@H](CCC(=O)OC(C)(C)C)NC(=O)[C@@H]1C3` [Ko143, reference compound]: the “toxicity of Ko143 alone” value in the assay on Raji/COMPOUND IR cells (concentrations up to 300 nM, FIG. 5C) is “not toxic”; in the assay with Raji cells, “not toxic”.
